These results are taken from patent US20190284136A1, “INDOLINE DERIVATIVES” (ViiV HEALTHCARE UK LIMITED, priority 2016, published 2019).

SMILES strings stand for the structures.

The first test relates to HIV. Kind of test: Table 1 IC50 of the examples (assay method not given; patent concerns inhibiting HIV replication). Type of test: cell-based.
Conditions: not given
By IC50 is commonly meant the concentration needed to halve the response being measured. Low readings indicate inhibition by little substance, high ones a need for much substance. Molecule `COc1c(F)cccc1C(=O)N1CCc2c1cc(C)c([C@H](OC(C)(C)C)C(=O)O)c2-c1cc(F)c2c(c1C)CCCO2` (atropisomer, axis not shown) [Example 45, (S)-2-(tert-Butoxy)-2-((R)-1-(3-fluoro-2-methoxybenzoyl)-4-(8-fluoro-5-methylchroman-6-yl)-6-methylindolin-5-yl)acetic acid] yielded an IC50 of 1 nM.

The same test, now with this note: Human immunodeficiency virus 1.
Molecule `Cc1cc2c(c(-c3cc(F)c4c(c3C)CCCO4)c1[C@H](OC(C)(C)C)C(=O)O)CCN2C(=O)c1ccc(C(F)(F)F)cc1` (atropisomer, axis not shown) [Example 46, (S)-2-(tert-Butoxy)-2-((R)-4-(8-fluoro-5-methylchroman-6-yl)-6-methyl-1-(4-(trifluoromethyl)benzoyl)indolin-5-yl)acetic acid] showed an IC50 of 4 nM. In other words, the single-digit nanomolar range.

`Cc1cc(Cl)ccc1C(=O)N1CCc2c1cc(C)c([C@H](OC(C)(C)C)C(=O)O)c2-c1cc(F)c2c(c1C)CCCO2` (atropisomer, axis not shown) [Example 47, (S)-2-(tert-Butoxy)-2-((R)-1-(4-chloro-2-methylbenzoyl)-4-(8-fluoro-5-methylchroman-6-yl)-6-methylindolin-5-yl)acetic acid] came in with an IC50 of 4 nM.

`Cc1cc(C(=O)N2CCc3c2cc(C)c([C@H](OC(C)(C)C)C(=O)O)c3-c2cc(F)c3c(c2C)CCCO3)ccc1F` (atropisomer, axis not shown) [Example 48, (S)-2-(tert-Butoxy)-2-((R)-1-(4-fluoro-3-methylbenzoyl)-4-(8-fluoro-5-methylchroman-6-yl)-6-methylindolin-5-yl)acetic acid] yielded an IC50 of 4 nM.

Take `Cc1cc2c(c(-c3cc(F)c4c(c3C)CCCO4)c1[C@H](OC(C)(C)C)C(=O)O)CCN2C(=O)c1cccc(F)c1Cl` (atropisomer, axis not shown) [Example 49, (S)-2-(tert-Butoxy)-2-((R)-1-(2-chloro-3-fluorobenzoyl)-4-(8-fluoro-5-methylchroman-6-yl)-6-methylindolin-5-yl)acetic acid]: the IC50 turned out to be 2 nM.

`COc1ccc(Cl)cc1C(=O)N1CCc2c1cc(C)c([C@H](OC(C)(C)C)C(=O)O)c2-c1cc(F)c2c(c1C)CCCO2` (atropisomer, axis not shown) [Example 50, (S)-2-(tert-Butoxy)-2-((R)-1-(5-chloro-2-methoxybenzoyl)-4-(8-fluoro-5-methylchroman-6-yl)-6-methylindolin-5-yl)acetic acid] showed an IC50 of 5 nM. Compared with the last molecule, the IC50 is about 2.5-fold higher.

Take `Cc1cc2c(c(-c3cc(F)c4c(c3C)CCCO4)c1[C@H](OC(C)(C)C)C(=O)O)CCN2C(=O)c1cnccc1Cl` (atropisomer, axis not shown) [Example 51, (S)-2-(tert-Butoxy)-2-((R)-1-(4-chloronicotinoyl)-4-(8-fluoro-5-methylchroman-6-yl)-6-methylindolin-5-yl)acetic acid]: 17 nM corresponded to half-maximal inhibition (IC50). This IC50 lies about 3.4-fold higher than the previous one.

Molecule `Cc1cc2c(c(-c3cc(F)c4c(c3C)CCCO4)c1[C@H](OC(C)(C)C)C(=O)O)CCN2C(=O)c1cccc(Cl)c1` (atropisomer, axis not shown) [Example 52, (S)-2-(tert-Butoxy)-2-((R)-1-(3-chlorobenzoyl)-4-(8-fluoro-5-methylchroman-6-yl)-6-methylindolin-5-yl)acetic acid] gave a concentration for half-maximal inhibition (IC50) of 2 nM.

As for `Cc1ccccc1C(=O)N1CCc2c1cc(C)c([C@H](OC(C)(C)C)C(=O)O)c2-c1cc(F)c2c(c1C)CCCO2` (atropisomer, axis not shown) [Example 53, (S)-2-(tert-Butoxy)-2-((R)-4-(8-fluoro-5-methylchroman-6-yl)-6-methyl-1-(2-methylbenzoyl)indolin-5-yl)acetic acid], 3 nM corresponded to half-maximal inhibition (IC50).

For the molecule `Cc1cc2c(c(-c3cc(F)c4c(c3C)CCCO4)c1[C@H](OC(C)(C)C)C(=O)O)CCN2C(=O)C1CCCC1` (atropisomer, axis not shown) [Example 54, (S)-2-(tert-Butoxy)-2-((R)-1-(cyclopentanecarbonyl)-4-(8-fluoro-5-methylchroman-6-yl)-6-methylindolin-5-yl)acetic acid], it took 12 nM to reach half-maximal inhibition (IC50).

Regarding `Cc1ccc(F)c(C(=O)N2CCc3c2cc(C)c([C@H](OC(C)(C)C)C(=O)O)c3-c2cc(F)c3c(c2C)CCCO3)c1` (atropisomer, axis not shown) [Example 55, (S)-2-(tert-Butoxy)-2-((R)-1-(2-fluoro-5-methylbenzoyl)-4-(8-fluoro-5-methylchroman-6-yl)-6-methylindolin-5-yl)acetic acid], the IC50 was determined as 6 nM. This IC50 lies about 2-fold lower than the previous one.

In turn, `Cc1cc2c(c(-c3cc(F)c4c(c3C)CCCO4)c1[C@H](OC(C)(C)C)C(=O)O)CCN2C(=O)c1ccc(Cl)c(F)c1` (atropisomer, axis not shown) [Example 56, (S)-2-(tert-Butoxy)-2-((R)-1-(4-chloro-3-fluorobenzoyl)-4-(8-fluoro-5-methylchroman-6-yl)-6-methylindolin-5-yl)acetic acid] returned an IC50 of 2 nM.

Molecule `Cc1cc2c(c(-c3cc(F)c4c(c3C)CCCO4)c1[C@H](OC(C)(C)C)C(=O)O)CCN2C(=O)c1cc(F)cc(F)c1` (atropisomer, axis not shown) [Example 57, (S)-2-(tert-Butoxy)-2-((R)-1-(3,5-difluorobenzoyl)-4-(8-fluoro-5-methylchroman-6-yl)-6-methylindolin-5-yl)acetic acid] returned an IC50 of 2 nM.

`Cc1cc2c(c(-c3cc(F)c4c(c3C)CCCO4)c1[C@H](OC(C)(C)C)C(=O)O)CCN2C(=O)CCc1ccccc1` (atropisomer, axis not shown) [Example 58, (S)-2-(tert-Butoxy)-2-((R)-4-(8-fluoro-5-methylchroman-6-yl)-6-methyl-1-(3-phenyl/propanoyl)indolin-5-yl)acetic acid] yielded an IC50 of 41 nM. This IC50 lies about 20-fold higher than the previous one.

Turning to `Cc1cc2c(c(-c3cc(F)c4c(c3C)CCCO4)c1[C@H](OC(C)(C)C)C(=O)O)CCN2C(=O)c1cccc2c1CCCC2` (atropisomer, axis not shown) [Example 59, (S)-2-(tert-Butoxy)-2-((R)-4-(8-fluoro-5-methylchroman-6-yl)-6-methyl-1-(5,6,7,8-tetrahydronaphthalene-1-carbonyl)indolin-5-yl)acetic acid], half-maximal inhibition (IC50) was put at 6 nM.

In the case of `Cc1cc2c(c(-c3cc(F)c4c(c3C)CCCO4)c1[C@H](OC(C)(C)C)C(=O)O)CCN2C(=O)c1ccc(F)cc1F` (atropisomer, axis not shown) [Example 60, (S)-2-(tert-Butoxy)-2-((R)-1-(2,4-difluorobenzoyl)-4-(8-fluoro-5-methylchroman-6-yl)-6-methylindolin-5-yl)acetic acid], inhibition was half-maximal at 6 nM (IC50).

`Cc1cc2c(c(-c3cc(F)c4c(c3C)CCCO4)c1[C@H](OC(C)(C)C)C(=O)O)CCN2C(=O)c1ccc(Cl)c(Cl)c1` (atropisomer, axis not shown) [Example 61, (S)-2-(tert-Butoxy)-2-((R)-1-(3,4-dichlorobenzoyl)-4-(8-fluoro-5-methylchroman-6-yl)-6-methylindolin-5-yl)acetic acid]: the midpoint of inhibition, the IC50, lay at 17 nM.

For the molecule `Cc1cc(F)ccc1C(=O)N1CCc2c1cc(C)c([C@H](OC(C)(C)C)C(=O)O)c2-c1cc(F)c2c(c1C)CCCO2` (atropisomer, axis not shown) [Example 62, (S)-2-(tert-Butoxy)-2-((R)-1-(4-fluoro-2-methylbenzoyl)-4-(8-fluoro-5-methylchroman-6-yl)-6-methylindolin-5-yl)acetic acid], the IC50 was found to be 6 nM.

On to `COc1cc(OC)cc(C(=O)N2CCc3c2cc(C)c([C@H](OC(C)(C)C)C(=O)O)c3-c2cc(F)c3c(c2C)CCCO3)c1` (atropisomer, axis not shown) [Example 63, (S)-2-(tert-Butoxy)-2-((R)-1-(3,5-dimethoxybenzoyl)-4-(8-fluoro-5-methylchroman-6-yl)-6-methylindolin-5-yl)acetic acid], for which it took 4 nM to reach half-maximal inhibition (IC50).

In turn, `Cc1cc2c(c(-c3cc(F)c4c(c3C)CCCO4)c1[C@H](OC(C)(C)C)C(=O)O)CCN2C(=O)c1ccc(F)cc1C(F)(F)F` (atropisomer, axis not shown) [Example 64, (S)-2-(tert-Butoxy)-2-((R)-1-(4-fluoro-2-(trifluoromethyl)benzoyl)-4-(8-fluoro-5-methylchroman-6-yl)-6-methylindolin-5-yl)acetic acid] yielded an IC50 of 5 nM.

As to `Cc1cc2c(c(-c3cc(F)c4c(c3C)CCCO4)c1[C@H](OC(C)(C)C)C(=O)O)CCN2C(=O)C1CCOCC1` (atropisomer, axis not shown) [Example 65, (S)-2-(tert-Butoxy)-2-((R)-4-(8-fluoro-5-methylchroman-6-yl)-6-methyl-1-(tetrahydro-2H-pyran-4-carbonyl)indolin-5-yl)acetic acid], the IC50 was determined as 378 nM.

In turn, `Cc1cc2c(c(-c3cc(F)c4c(c3C)CCCO4)c1[C@H](OC(C)(C)C)C(=O)O)CCN2C(=O)c1cccc(Cl)c1C` (atropisomer, axis not shown) [Example 66, (S)-2-(tert-Butoxy)-2-((R)-1-(3-chloro-2-methylbenzoyl)-4-(8-fluoro-5-methylchroman-6-yl)-6-methylindolin-5-yl)acetic acid] had an IC50 of 6 nM.

Turning to `COc1cccc(C(=O)N2CCc3c2cc(C)c([C@H](OC(C)(C)C)C(=O)O)c3-c2cc(F)c3c(c2C)CCCO3)c1C` (atropisomer, axis not shown) [Example 67, (S)-2-(tert-Butoxy)-2-((R)-4-(8-fluoro-5-methylchroman-6-yl)-1-(3-methoxy-2-methylbenzoyl)-6-methylindolin-5-yl)acetic acid], inhibition was half-maximal at 5 nM (IC50).

Molecule `Cc1cc2c(c(-c3cc(F)c4c(c3C)CCCO4)c1[C@H](OC(C)(C)C)C(=O)O)CCN2C(=O)c1cc(Cl)ccc1Cl` (atropisomer, axis not shown) [Example 68, (S)-2-(tert-Butoxy)-2-((R)-1-(2,5-dichlorobenzoyl)-4-(8-fluoro-5-methylchroman-6-yl)-6-methylindolin-5-yl)acetic acid] returned an IC50 of 13 nM.

As to `Cc1ccc(C)c(C(=O)N2CCc3c2cc(C)c([C@H](OC(C)(C)C)C(=O)O)c3-c2cc(F)c3c(c2C)CCCO3)c1` (atropisomer, axis not shown) [Example 69, (S)-2-(tert-Butoxy)-2-((R)-1-(2,5-dimethylbenzoyl)-4-(8-fluoro-5-methylchroman-6-yl)-6-methylindolin-5-yl)acetic acid], the IC50 was determined as 5 nM. This IC50 lies about 2.6-fold lower than the previous one.
